Assays:
[1] = system: double stranded RNA dependent protein kinase (PKR) gene; assay: Induction of PKR mRNA in liver and spleen of mice, real time quantitative PCR; format: in vivo, mouse
Experimental: The efficacy of HDV-interferon alpha was evaluated in a mouse model having a genetic marker response to the hepatic effect of interferon. C57B16 mice were obtained from Jackson Laboratory and a breeding colony was established at Cleveland MetroHealth Center, Cleveland, Ohio. Mice were obtained from the breeding colony. Two groups of mice, a test group and a control group, were treated. The test group received Interferon+HDV, while the control group received Interferon alone. HDV-Interferon comprised 100 mcg HDV to 10 mcg Interferon alpha. HDV was supplied by Hepasome Pharmaceuticals and Roeferon was the source of the interferon alpha. The HDV and interferon alpha were allowed to equilibrate for 12 hours prior to injection into the mice. Mice from both groups were dosed with 100,000 U/kg body wt. To test the timing of response to IFN, Roferon was subcutaneously injected into the mice. The mice were sacrificed at 6 hours after dosing. The spleen and liver of the sacrificed […] were obtained for analysis. […] The assay used real time quantitative PCR (polymerase chain reaction) to assay the level of PKR messenger ribonucleic acid (mRNA). […] The produced cDNAs were subjected to semi-quantitative PCR, the 6 hour time point was selected for the HDV experiments. […] Real time quantitative PCR was performed on the produced cDNAs using cybr green technology. […]

hepatitis C virus = conditions: chronic hepatitis C; treatment with interferon alone; cited from earlier work

interferon alpha
relative expression level in the spleen compared to the relative expression level in the liver ([1]; PKR mRNA, C57B16 mice, 100,000 U/kg body wt, subcutaneous, 6 hours after dosing, FIG. 12a): approximately twice
increase in PKR activation relative to a baseline ([1]; hepatic PKR activation, mouse model, FIG. 13): ~5 fold
sustained response (hepatitis C virus): less than 15 % of subjects

Source: patent US20100129428A1, “SUPRA MOLECULAR CONSTRUCT FOR DELIVERY OF INTERFERON TO A MAMMAL” (SDG, Inc., priority 2005, published 2010)
